According to patent publication US20220033397A1, “PHARMACEUTICAL COMPOUNDS AND THEIR USE AS INHIBITORS OF UBIQUITIN SPECIFIC PROTEASE 19 (USP19)” (ALMAC DISCOVERY LIMITED, priority 2018, published 2022):

target: T1, Full-length USP19 (Homo sapiens, UniProt O94966); experiment: USP19 fluorescence polarisation (FP) homogeneous assay with Ubiquitin-Lys-TAMRA substrate; assay type: biochemical; conditions: 2.5 nM USP19, 30 min pre-incubation, average of at least two duplicate experiments
T1 construct: Full-length USP19 was purchased from Boston Biochem (E-576); purchased Boston Biochem E-576
T1 sequence (O94966 1-1318): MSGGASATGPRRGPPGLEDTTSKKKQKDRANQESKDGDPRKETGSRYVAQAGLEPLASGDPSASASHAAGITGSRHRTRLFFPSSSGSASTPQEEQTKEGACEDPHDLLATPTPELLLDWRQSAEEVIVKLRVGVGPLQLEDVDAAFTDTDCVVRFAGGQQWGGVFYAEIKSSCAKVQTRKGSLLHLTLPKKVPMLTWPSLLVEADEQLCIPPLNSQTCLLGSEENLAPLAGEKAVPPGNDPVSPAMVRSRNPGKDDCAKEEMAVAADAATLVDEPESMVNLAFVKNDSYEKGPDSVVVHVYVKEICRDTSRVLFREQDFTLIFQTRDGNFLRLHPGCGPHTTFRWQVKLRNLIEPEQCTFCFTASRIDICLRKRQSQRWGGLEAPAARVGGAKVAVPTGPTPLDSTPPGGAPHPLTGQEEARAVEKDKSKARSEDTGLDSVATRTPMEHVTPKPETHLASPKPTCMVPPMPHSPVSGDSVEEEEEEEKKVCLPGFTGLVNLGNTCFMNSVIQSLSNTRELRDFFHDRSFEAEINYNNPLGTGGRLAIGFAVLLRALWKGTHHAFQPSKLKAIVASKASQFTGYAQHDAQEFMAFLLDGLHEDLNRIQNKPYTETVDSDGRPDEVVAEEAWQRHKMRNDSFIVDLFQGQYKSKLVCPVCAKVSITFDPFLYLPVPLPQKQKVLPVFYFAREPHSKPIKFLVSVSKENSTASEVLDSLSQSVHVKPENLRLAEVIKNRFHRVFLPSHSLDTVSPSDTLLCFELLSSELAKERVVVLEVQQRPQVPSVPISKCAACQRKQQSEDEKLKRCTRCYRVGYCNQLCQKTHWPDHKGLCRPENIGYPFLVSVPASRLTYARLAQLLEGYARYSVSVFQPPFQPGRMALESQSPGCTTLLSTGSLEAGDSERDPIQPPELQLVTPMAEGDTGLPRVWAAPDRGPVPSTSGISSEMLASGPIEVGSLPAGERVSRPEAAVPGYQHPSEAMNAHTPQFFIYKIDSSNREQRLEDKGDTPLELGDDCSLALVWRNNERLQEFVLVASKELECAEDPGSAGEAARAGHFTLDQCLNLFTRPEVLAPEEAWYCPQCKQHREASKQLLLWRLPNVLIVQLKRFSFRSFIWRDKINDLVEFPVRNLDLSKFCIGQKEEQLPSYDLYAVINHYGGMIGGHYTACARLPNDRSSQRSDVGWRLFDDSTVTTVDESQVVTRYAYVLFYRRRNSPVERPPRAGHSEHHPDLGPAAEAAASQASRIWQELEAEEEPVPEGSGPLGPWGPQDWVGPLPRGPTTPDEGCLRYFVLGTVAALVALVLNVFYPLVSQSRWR
Outline: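 Full-length USP19 preincubated 30 min at RT with inhibitor (200 μM to 2 μM series, 8–18 points) before adding 500 nM Ubiquitin-Lys-TAMRA substrate.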

Compound	IC50 [nM]
O=C(N1CCC(O)(Cn2cnc(-c3ccccc3)cc2=O)C2(CCCC2)C1)N1CCSCC1c1ccccc1 [Example 333, (S)-3-((10-Hydroxy-7-(3-phenylthiomorpholine-4-carbonyl)-7-azaspiro[4.5]decan-10-yl)methyl)-6-phenylpyrimidin-4(3H)-one]	< 500
O=C(N1CC[C@@](O)(Cn2cnc(-c3ccccc3)cc2=O)C2(CCCC2)C1)N1CCS(=O)(=O)CC1c1ccccc1 (stereo partly drawn) [Example 335, (S)-3-((7-(1,1-Dioxido-3-phenylthiomorpholine-4-carbonyl)-10-hydroxy-7-azaspiro[4.5]decan-10-yl)methyl)-6-phenylpyrimidin-4(3H)-one]	< 500
O=C(N1CC[C@@](O)(Cn2cnc(-c3ccccc3)cc2=O)C2(CCCC2)C1)N1CCNCC1c1ccc(C(F)(F)F)cc1 (stereo partly drawn) [Example 336, 3-(((10S)-10-Hydroxy-7-(2-(4-(trifluoromethyl)phenyl)piperazine-1-carbonyl)-7-azaspiro[4.5]decan-10-yl)methyl)-6-phenylpyrimidin-4(3H)-one]	< 500
COc1ccc(-c2cc(=O)n(C[C@]3(O)CCN(C(=O)N4CCNC[C@H]4c4ccccc4)CC34CCCC4)cn2)cc1 [Example 339, 3-(((S)-10-Hydroxy-7-((R)-2-phenylpiperazine-1-carbonyl)-7-azaspiro[4.5]decan-10-yl)methyl)-6-(4-methoxyphenyl) pyrimidin-4(3H)-one]	< 500
Cc1cccc(-c2cc(=O)n(C[C@]3(O)CCN(C(=O)N4CCNC[C@H]4c4ccccc4)CC34CCCC4)cn2)c1 [Example 341, 3-(((S)-10-Hydroxy-7-((R)-2-phenylpiperazine-1-carbonyl)-7-azaspiro[4.5]decan-10-yl)methyl)-6-(m-tolyl)pyrimidin-4(3H)-one]	< 500
O=C(N1CC[C@@](O)(Cn2cnc(-c3cccs3)cc2=O)C2(CCCC2)C1)N1CCNC[C@H]1c1ccccc1 [Example 343, 3-(((S)-10-Hydroxy-7-((R)-2-phenylpiperazine-1-carbonyl)-7-azaspiro[4.5]decan-10-yl)methyl)-6-(thiophen-2-yl)pyri-midin-4(3H)-one]	< 500
O=C(N1CC[C@@](O)(Cn2cnc(-c3ccsc3)cc2=O)C2(CCCC2)C1)N1CCNC[C@H]1c1ccccc1 [Example 344, 3-(((S)-10-Hydroxy-7-((R)-2-phenylpiperazine-1-carbonyl)-7-azaspiro[4.5]decan-10-yl)methyl)-6-(thio-phen-3-yl)pyrimidin-4(3H)-one]	< 500
O=C(N1CC[C@@](O)(Cn2cnc(-c3ccc4c(c3)COC4)cc2=O)C2(CCCC2)C1)N1CCNC[C@H]1c1ccccc1 [Example 347, 6-(1,3-Dihydro-isobenzofuran-5-yl)-3-(((S)-10-hydroxy-7-((R)-2-phenylpiperazine-1-carbonyl)-7-aza-spiro[4.5]decan-10-yl)methyl)pyrimidin-4(3H)-one]	< 500
O=C(N1CC[C@@](O)(Cn2cnc(-c3ccc(Cl)cc3)cc2=O)C2(CCCC2)C1)N1CCNC[C@H]1c1ccccc1 [Example 349, 6-(4-Chlorophenyl)-3-(((S)-10-hydroxy-7-((R)-2-phenylpiperazine-1-carbonyl)-7-aza-spiro[4.5]decan-10-yl)methyl)pyrimidin-4(3H)-one]	< 500
O=C(N1CC[C@@](O)(Cn2cnc(-c3ccc(OC4CC4)cc3)cc2=O)C2(CCCC2)C1)N1CCNC[C@H]1c1ccccc1 [Example 350, 6-(4-Cyclo-propoxyphenyl)-3-(((S)-10-hydroxy-7-((R)-2-phenylpipera-zine-1-carbonyl)-7-azaspiro[4.5]decan-10-yl)methyl)pyrimi-din-4(3H)-one]	< 500
O=C(N1CC[C@@](O)(Cn2cnc(N3CCC(F)(F)CC3)cc2=O)C2(CCCC2)C1)N1CCNC[C@H]1c1ccccc1 [Example 351, 6-(4,4-Difluoro-piperidin-1-yl)-3-(((S)-10-hydroxy-7-((R)-2-phenylpiperazine-1-carbonyl)-7-aza-spiro[4.5]decan-10-yl)methyl)pyrimidin-4(3H)-one]	< 500
O=C(N1CC[C@@](O)(Cn2cnc(N3CC4CC4C3)cc2=O)C2(CCCC2)C1)N1CCNC[C@H]1c1ccccc1 (stereo partly drawn) [Example 352, 6-(3-Aza-bicyclo[3.1.0]hexan-3-yl)-3-(((S)-10-hydroxy-7-((R)-2-phenylpiperazine-1-carbonyl)-7-aza-spiro[4.5]decan-10-yl)methyl)pyrimidin-4(3H)-one]	< 500

Now from value to molecule:

IC50 [nM]	Compound
< 500	N=S1(=O)CCN(C(=O)N2CC[C@@](O)(Cn3cnc(-c4ccccc4)cc3=O)C3(CCCC3)C2)C(c2ccccc2)C1 (stereo partly drawn) [Example 334, 3-(((10S)-10-Hydroxy-7-(1-imino-1-oxido-3-phenyl-1λ^6-thiomorpholine-4-carbonyl)-7-azaspiro[4.5]decan-10-yl)methyl)-6-phenylpyrimidin-4(3H)-one]
< 500	O=C(N1CC[C@@](O)(Cn2cnc(-c3ccccc3)cc2=O)C2(CCCC2)C1)N1CCNCC1c1ccsc1 (stereo partly drawn) [Example 337, 3-(((10S)-10-Hydroxy-7-(2-(thiophen-3-yl)piperazine-1-carbonyl)-7-azaspiro[4.5]decan-10-yl)methyl)-6-phenylpyrimidin-4(3H)-one]
< 500	COc1cccc(-c2cc(=O)n(C[C@]3(O)CCN(C(=O)N4CCNC[C@H]4c4ccccc4)CC34CCCC4)cn2)c1 [Example 338, 3-(((S)-10-Hydroxy-7-((R)-2-phenylpiperazine-1-carbonyl)-7-azaspiro[4.5]decan-10-yl)methyl)-6-(3-methoxyphenyl) pyrimidin-4(3H)-one]
< 500	Cc1ccccc1-c1cc(=O)n(C[C@]2(O)CCN(C(=O)N3CCNC[C@H]3c3ccccc3)CC23CCCC3)cn1 [Example 340, 3-(((S)-10-Hydroxy-7-((R)-2-phenylpiperazine-1-carbonyl)-7-azaspiro[4.5]decan-10-yl)methyl)-6-(o-tolyl)pyrimidin-4(3H)-one]
< 500	Cc1ccc(-c2cc(=O)n(C[C@]3(O)CCN(C(=O)N4CCNC[C@H]4c4ccccc4)CC34CCCC4)cn2)cc1 [Example 342, 3-(((S)-10-Hydroxy-7-((R)-2-phenylpiperazine-1-carbonyl)-7-azaspiro[4.5]decan-10-yl)methyl)-6-(p-tolyl)pyrimidin-4(3H)-one]
< 500	COc1ccc(-c2cc(=O)n(C[C@]3(O)CCN(C(=O)N4CCNC[C@H]4c4ccccc4)CC34CCCC4)cn2)s1 [Example 345, 3-(((S)-10-Hydroxy-7-((R)-2-phenylpiperazine-1-carbonyl)-7-azaspiro[4.5]decan-10-yl)methyl)-6-(5-methoxythiophen-2-yl)pyrimidin-4(3H)-one]
< 500	O=C(N1CC[C@@](O)(Cn2cnc(-c3ccc4c(c3)CCO4)cc2=O)C2(CCCC2)C1)N1CCNC[C@H]1c1ccccc1 [Example 346, 6-(2,3-Dihydrobenzofuran-5-yl)-3-(((S)-10-hydroxy-7-((R)-2-phenylpiperazine-1-carbonyl)-7-aza-spiro[4.5]decan-10-yl)methyl)pyrimidin-4(3H)-one]
< 500	O=C(N1CC[C@@](O)(Cn2cnc(N3CCCCC3)cc2=O)C2(CCCC2)C1)N1CCNC[C@H]1c1ccccc1 [Example 348, 3-(((S)-10-Hydroxy-7-((R)-2-phenylpiperazine-1-carbonyl)-7-aza-spiro[4.5]decan-10-yl)methyl)-6-(piperi-din-1-yl)pyrimidin-4(3H)-one]
